Measured values from publication PMC6017655, “In Silico and in Vitro-Guided Identification of Inhibitors of Alkylquinolone-Dependent Quorum Sensing in Pseudomonas aeruginosa” (Molecules : A Journal of Synthetic Chemistry and Natural …, 2018).
Like-named read-outs stand apart in the source and are kept apart here.

Assays:
PAO1-L = experiment: Bacterial growth (optical density) in reporter assay, PAO1-L; type: cell-based, Pseudomonas aeruginosa; details: compound vs DMSO control
Method: (§1) To determine the ability of the quinolines to inhibit PqsR functionality, the P. aeruginosa biosensor strains, PAO1-L and PA14, incorporating a chromosomal mCTX::PpqsA-lux transcriptional fusion, were used. These report on the activation of the pqsA promoter, regulated by PqsR [25]. PAO1-L and PA14 were chosen because they are genetically amenable and belong to the two major P. aeruginosa genomic groups. The quinolone compounds were incubated with the corresponding strain, and luminescence and optical density readings were recorded to monitor the effect of the quinolines on PqsR activity and bacterial growth, respectively. The compounds were screened at 10 µM concentration, and the activity was compared to a control of DMSO (0.1%) (Figure 3a). To be considered a hit, a threshold of at least 50% inhibition of the test compound, relative to the negative control had to be reached, without affecting bacterial growth. […] Concentration-response experiments were then carried out to determine the IC50 values (Figure 3b,c), which are summarised in Table 1.
(§2) Figure 3 Whole bacterial cell-based P. aeruginosa compound screen for both PqsR and growth inhibition (a) Activity against PA14 (green) and PAO1-L (purple) PpqsA-lux reporter strains at 10 µM test compound; (b) and (c) Dose-response curves for active compounds against PA14 (b) and PAO1-L (c); (d) and (e) growth curves for PA14 (d) and PAO1-L (e) in the presence of compound or DMSO control.

Plasma stability, rat = type: in vitro ADME; details: 37 °C, up to 2 h, read-out: Plasma Stability Rat t1/2
Method: (§3) Dilutions of a 10 mM test compound DMSO stock solution were prepared so that the final DMSO concentration was 1% v/v and the final test compound concentration tested was 1 µM. Following the addition of the test compound to plasma, the samples were pre-incubated for 10 min prior to the start of the incubation by the addition of the test compound. The test compound was incubated (n = 2; 1 µM final concentration) at 37 °C with plasma for up to 2 h. Aliquots were sampled at several time points and mixed with acetonitrile (containing internal standard) to terminate the reaction and precipitate the proteins. All the samples were mixed, centrifuged and the supernatants analysed by UPLC-MSMS. Parent disappearance and half-life (t 1/2) values were determined from the slope of the parent depletion curve. Control compounds (imidapril, enalapril, tenofovir and/or propantheline), were respectively included.

[1] = Hepatic microsomal stability, human; type: in vitro ADME; details: liver microsomes, pH 7.4, 0.5 mg/mL protein, NADPH, 37 °C; for half-life at 1 µM: read-out: Microsomal Stability Human t1/2
Method: (§4) Dilutions of a 1 mM test compound DMSO stock solution were prepared in buffer (typically 0.01 M phosphate buffered saline (pH 7.4) so that the final DMSO concentration was 0.1% v/v and the final test compound concentration tested was 1 µM. Following addition of protein (0.5 mg/mL final) and NADPH, the samples were pre-incubated for 10 min prior to the start of the incubation by the addition of test compound. The test compounds were then incubated (n = 2; 1 µM final concentration) at 37 °C with tissue microsomes. Aliquots were sampled at several time points and mixed with acetonitrile (containing internal standard) to terminate the reaction and precipitate the proteins. All the samples were mixed, centrifuged and the supernatants analysed by UPLC-MS/MS. The intrinsic clearance (Clint) and half-life (t 1/2) values were determined from the slope of the parent depletion curve. Control compounds for low, moderate and high intrinsic clearance, respectively, for both human and rat microsomes, were included.

[2] = system: PqsR (pqsA promoter, PAO1-L mCTX::PpqsA-lux); experiment: Whole cell biosensor reporter assay, PAO1-L mCTX::PpqsA-lux; type: cell-based, Pseudomonas aeruginosa; details: for IC50: Mean ± SD, n = 3; for activity at 10 µM: PAO1, read-out: PAO1-L Remaining Activity %; for PqsR inhibitory activity (in words), PAO1-L: screen at 10 µM / dose-response
Method: as §1
(§5) Strains PA14 mCTX::PpqsA-lux and PAO1-L mCTX::PpqsA-lux were constructed using plasmid mini-CTX::PpqsA-lux, as previously described, and the assay was performed according to a published protocol. For screening, the compounds were tested at a concentration of 10 µM, which was prepared from a 10 mM stock, in DMSO.

PA14 = experiment: Bacterial growth (optical density) in reporter assay, PA14; type: cell-based, Pseudomonas aeruginosa; details: compound vs DMSO control
Method: as §1, §2

[3] = Hepatic microsomal stability, rat; type: in vitro ADME; details: liver microsomes, pH 7.4, 0.5 mg/mL protein, NADPH, 37 °C; for microsomal CLint at 1 µM: read-out: Microsomal Stability Rat Clint (intrinsic clearance); for half-life at 1 µM: read-out: Microsomal Stability Rat t1/2
Method: as §4

[4] = system: PqsR (pqsA promoter, PA14 mCTX::PpqsA-lux); experiment: Whole cell biosensor reporter assay, PA14 mCTX::PpqsA-lux; type: cell-based, Pseudomonas aeruginosa; details: for IC50: Mean ± SD, n = 3; for activity at 10 µM: PA14, read-out: PA14 Remaining Activity %; for PqsR inhibitory activity (in words), PA14: screen at 10 µM
Method: as §1, §5

Plasma stability, human = type: in vitro ADME; details: 37 °C; for half-life at 1 µM: human, plasma, up to 2 h, read-out: Plasma Stability Human t 1/2
Method: as §3

AQ production in PAO1-L = experiment: Alkylquinolone (HHQ, PQS, HQNO) production by LC-MS/MS, PAO1-L; type: cell-based, Pseudomonas aeruginosa; details: 3x IC50, 16 h, culture supernatant
Method: (§6) HQNO, can protect Staphylococcus aureus from vancomycin [31] and contributes to the environmental competitiveness of P. aeruginosa, through its activity as a potent inhibitor of the cytochrome bc1 complex. […] LC-MS/MS was used to quantify the major AQs HHQ, PQS and HQNO after incubation of the P. aeruginosa strains with the hit compounds, for 16 h. The assay was performed using both PAO1-L and PA14 strains which were treated with PqsR antagonists at concentrations three-fold higher than their IC50 values. The results obtained depended on the inhibitor and strain tested (Figure 5).
(§7) For each test sample, 100 µL of sterile filtered supernatant (the same preparation as for pyocyanin) was spiked with 10 µL of an internal standard solution (10 µM d4-PQS in MeOH), and diluted with water, to a total volume of 500 µL. Samples were then extracted three times with an 0.5 mL aliquot of ethyl acetate, vortex mixing the aqueous/organic mix for 2 min, then removing the organic phase once the layers had successfully partitioned. For each sample, the combined organic extracts were dried under vacuum and re-dissolved in 100 µL MeOH prior to analysis. For the LC-MS/MS analysis of supernatant extracts, the chromatography was achieved using a Shimadzu series 10AD VP LC system (Columbia, MD, USA). The LC column, maintained at 40 °C, was a Phenomenex Gemini C18 (3.0 µm, 100 × 3.0 mm) (Macclesfield, Cheshire, UK) with an appropriate guard column. Mobile phase A was 0.1% (v/v) formic acid in water containing 2 mM 2-picolinic acid, and mobile phase B 0.1% (v/v) formic acid in methanol. The flow rate throughout the chromatographic separation was 450 µL/min. After an injection of a 2 µL/sample, a binary gradient, beginning initially at 30% B, increased linearly to 99% B over 5 min. The composition remained at 99% B for 3 min, decreased to 30% B over 1 min, and stayed at this composition for 4 min, to allow for column equilibration. […] Where chromatographic peaks for HHQ, HQNO and PQS were detected, a peak area was determined, and analyte peak area/internal standard peak area calculated.

AQ production in PA14 = experiment: Alkylquinolone (HHQ, PQS, HQNO) production by LC-MS/MS, PA14; type: cell-based, Pseudomonas aeruginosa; details: 3x IC50, 16 h, culture supernatant
Method: as §6, §7

PAO1-L biofilms = experiment: Biofilm assay on glass coverslips, GFP-labelled PAO1-L; type: cell-based, Pseudomonas aeruginosa; details: Ia 34 µM; tobramycin 100 µg/mL for 4 h
Method: (§8) One of the clinical challenges of P. aeruginosa infections is the difficulty associated with the effective treatment of biofilms due to their high resistance to antibiotics. […] The effect of Ia, with or without tobramycin, on PA14 and PAO1-L biofilms grown on glass coverslips, was determined. […] The experiment was performed using green fluorescent labelled (GFP)-labelled PAO1-L and PA14 strains, grown under four different conditions: (i) no treatment (control); (ii) compound Ia at 8 µM in PA14 and 34 µM in PAO1-L (concentrations equal to 3× IC50); (iii) tobramycin at 100 µg/mL; (iv) Ia and tobramycin, at the same concentrations as (ii) and (iii).
(§9) Biofilms were cultivated on borosilicate glass coverslips in petri dishes. P. aeruginosa strains, PAO1-L and PA14, were labelled by transformation with plasmid pMMG, which constitutively expresses GFP from the Ptac promoter. Labelled strains were grown at 37 °C, for 16 h, in 2 mL RPMI-1640 (Lonza, Slough, UK), supplemented with 20 mM D-glucose (Sigma–Aldrich, Dorset, UK) and 2 µM FeCl3 (Sigma–Aldrich, Dorset, UK). Cultures were diluted 1:100 in fresh medium and allowed to grow for a further 4 h, or until an OD600 of 0.5 was reached. The mid-logarithmic cultures were diluted to an OD600 of 0.01 in 25 mL RPMI, supplemented with glucose and FeCl3, and inoculated into petri dishes containing UV sterilised borosilicate glass coverslips (22 × 22 mm, thickness no1) (VWR, Lutterworth, UK). Bacterial cells were seeded at 37 °C under static conditions for 1.5 h, and compound Ia was added to the culture at a concentration of 34 µM for P. aeruginosa PAO1-L and 8 µM for PA14 before dishes were moved to a shaker at 60 rpm and 37 °C for 15 h to form mature biofilms. Tobramycin and propidium iodide were added to the 15 h-old cultures at concentrations of 100 µg/mL and 2 µM, respectively, followed by further incubation for 4 h. Coverslips were examined under a Laser Scanning Fluorescent Microscope (LSM2, Zeiss, Oberkochen, Germany). Biofilms were visualised using egfp mode at an excitation wavelength of 488nm. Imaging was carried out using Zen 2011 imaging software (Zeiss, Oberkochen, Germany). A total of 5 Z-stacked images were collected per coverslip. Sampling was conducted at random from the central portion of each coverslip. Biomass was calculated using Image J (NIH, Bethesda, MD, USA) and Comstat 2.1. Software package (www.comstat.dk, lyngby, Denmark).

PA14 biofilms = experiment: Biofilm assay on glass coverslips, GFP-labelled PA14; type: cell-based, Pseudomonas aeruginosa; details: Ia 8 µM; tobramycin 100 µg/mL for 4 h
Method: as §8, §9

[5] = Pseudomonas aeruginosa, PAO1, read-out: IC50 PAO1-L, PpqsA-lux reporter
[6] = read-out: IC50 PAO1-L, PpqsA-lux reporter
[7] = Pseudomonas aeruginosa, PA14, read-out: IC50 PA14, PpqsA-lux reporter

## CC(=O)N1N=C(c2ccccc2)CC1c1cccc(Nc2ccnc3cc(C(F)(F)F)ccc23)c1 (stereo not drawn) [IIi]
PAO1-L
  Effect on bacterial growth, PAO1-L: without interfering with bacterial growth
Plasma stability, rat
  half-life at 1 µM: > 240 min
[1]
  microsomal CLint at 1 µM: 72.9 µL/min/mg
  half-life at 1 µM: 19 min
[2]; [5]
  IC50: 5 µM
[2]; Pseudomonas aeruginosa
  activity at 10 µM: 26.1 ± 0.99%
[2]; [6]
  IC50: 5.14 ± 0.6 µM
[2]
  PqsR inhibitory activity (in words), PAO1-L: strong PqsR inhibitory activity
PA14
  Effect on bacterial growth, PA14: without interfering with bacterial growth
[3]
  microsomal CLint at 1 µM: 65.7 µL/min/mg
  half-life at 1 µM: 21.1 min
[4]; [7]
  IC50: 5 µM
[4]; Pseudomonas aeruginosa
  activity at 10 µM: 16.8 ± 1.01%
[4]; read-out: IC50 PA14, PpqsA-lux reporter
  IC50: 4.9 ± 0.3 µM
[4]
  PqsR inhibitory activity (in words), PA14: strong PqsR inhibitory activity
Plasma stability, human; 1 µM
  Plasma stability (in words), human plasma: greatest plasma stability
Plasma stability, human
  half-life at 1 µM: 157 min

## O=CN1N=C(c2ccccc2)CC1c1cccc(Nc2ccnc3cc(C(F)(F)F)ccc23)c1 (stereo not drawn) [Ii]
PAO1-L
  Effect on bacterial growth, PAO1-L: without interfering with bacterial growth
Plasma stability, rat
  half-life at 1 µM: > 240 min
AQ production in PAO1-L
  Inhibition of AQ production (in words), PAO1-L: greatest inhibition
[1]
  microsomal CLint at 1 µM: 80.7 µL/min/mg
  half-life at 1 µM: 17.2 min
[2]; [5]
  IC50: 5 µM
[2]; Pseudomonas aeruginosa
  activity at 10 µM: 15.6 ± 2.53%
[2]; [6]
  IC50: 5.1 ± 0.32 µM
[2]
  PqsR inhibitory activity (in words), PAO1-L: strong PqsR inhibitory activity
PA14
  Effect on bacterial growth, PA14: without interfering with bacterial growth
[3]
  microsomal CLint at 1 µM: 54.1 µL/min/mg
  half-life at 1 µM: 25.7 min
AQ production in PA14
  Inhibition of AQ production (in words), PA14: not observed
[4]; [7]
  IC50: 5 ± 0.82 µM
[4]; Pseudomonas aeruginosa
  activity at 10 µM: 16.6 ± 1.3%
[4]
  PqsR inhibitory activity (in words), PA14: strong PqsR inhibitory activity
Plasma stability, human
  half-life at 1 µM: 69.1 min

## O=CN1N=C(c2ccc(Br)cc2)CC1c1cccc(Nc2ccnc3cc(C(F)(F)F)ccc23)c1 (stereo not drawn) [Io]
[2]; Pseudomonas aeruginosa
  activity at 10 µM: 68.5 ± 3.43%
[4]; Pseudomonas aeruginosa
  activity at 10 µM: 80.6 ± 6.26%

## O=CN1N=C(c2ccc3c(c2)OCO3)CC1c1cccc(Nc2ccnc3cc(C(F)(F)F)ccc23)c1 (stereo not drawn) [Ip]
[2]; Pseudomonas aeruginosa
  activity at 10 µM: 84.3 ± 5.48%
[4]; Pseudomonas aeruginosa
  activity at 10 µM: 81.4 ± 9.36%

## NC[C@H]1O[C@H](O[C@H]2[C@H](O)[C@@H](O[C@H]3O[C@H](CO)[C@@H](O)[C@H](N)[C@H]3O)[C@H](N)C[C@@H]2N)[C@H](N)C[C@@H]1O [tobramycin, reference compound]
PAO1-L biofilms
  Effect on biofilm biomass, PAO1-L: significantly reduced biofilm biomass
  Effect on cell viability in biofilm (propidium iodide), PAO1-L: increasing the proportion of dead bacterial cells substantially
PA14 biofilms
  Effect on biofilm biomass, PA14: significantly reduced biofilm biomass
  Effect on cell viability in biofilm (propidium iodide), PA14: increasing the proportion of dead bacterial cells substantially
